Results: patent US20170296668A1, “METHODS OF INCREASING SOLUBILITY OF POORLY SOLUBLE COMPOUNDS AND METHODS OF MAKING AND USING FORMULATIONS OF SUCH COMPOUND” (VIZURI HEALTH SCIENCES LLC, priority 2009, published 2017)
Like-named read-outs stand apart in the source and are kept apart here. One block for each molecule: values may come before it.

Tests used:
[1] = Aqueous solution clarity: water added to concentrate vs non-concentrate method
[2] = Nonoxynol-9 concentrates via thermal treatment process; format: physicochemical; details: Table XVI
[3] = Solubility in PEG 400 / PEG 300 via thermal treatment process; details: for PEG400 Sol. Conc. / Jordi PEG400 Results: Table III; for Flavonoid in Solvent -: PEG-400, HPLC, thermal treatment concentrate
[4] = Solubility in Polysorbate 80 via thermal treatment process; details: for Prepared Thermal Treatment Concentration in Polysorbate 80: Table XV; for Flavonoid in Solvent -: PS80, HPLC, thermal treatment concentrate; for solubility: polysorbate 80, organic solvent or mixture, thermodynamic from solid; for Jordi PS800 Results / PS80 Sol. Conc. -: Table III
[5] = cited from earlier work; for WATER SOLUBILITY (mg/ml): saturation concentrations, published sources; for Lit. H2O Sol. -: Table III
[6] = Supersaturation test by addition of a crystal
[7] = Boiling of flavonoid in H2O & PS80 slurry; format: physicochemical; details: 2. H2O & PS80 slurry boiled; for solubility: water and polysorbate 80 slurry, aqueous with cosolvent or surfactant or cyclodextrin, thermodynamic from solid, read-out: SOLUBLE CONC. RANGE
[8] = Solubility in Ceteareth-20 via thermal treatment process; details: thermal treatment >200° C.
EpiDerm tissue = format: cell-based; details: time to reduce tissue viability to 50%; unaudited values
[9] = Solubility of concentrates in oil solvents; format: physicochemical
[10] = PS80, 1. Thermal Treatment method

Molecule: Cc1cccc(Nc2ccccc2C(=O)O)c1C [Mefenamic Acid, reference compound]
- non-concentrate method: compound, nonoxynol-9 and 17 ml water heated to near boiling, cooled [1]: did precipitate
- Comments when 17 ml of H2O was added to 3 gms of the concentrate ([1]; Nonoxynol-9 concentrate): A clear soln formed.
- PEG400 Solubility: behaviour when H2O was added ([1]; PEG400 solution + H2O): Nost Mefenamic Acid ppt. out when H2O was added
- PS80 Solubility: behaviour when H2O was added ([1]; PS80 solution + H2O): Nost Mefenamic Acid dissolved when H2O was added
- non-concentrate method: compound, polysorbate 80 and 17 ml water heated to near boiling, cooled [1]: did precipitate
- Comments when 17 ml of H2O was added to 3 gms of the concentrate ([1]; Polysorbate 80 concentrate): A clear soln formed.
- Prepared Thermal Treatment Concentration in Nonoxynol-9 [2]: 10 mg/mL
- PEG400 Solubility: amount solubilized, remained solubilized @ Room Temp. ([3]; thermal treatment): 1 wt %
- Prepared Thermal Treatment Concentration in Polysorbate 80 [4]: 10 mg/mL
- PS80 Solubility: amount solubilized, remained solubilized @ Room Temp. ([4]; thermal treatment): 1 wt %
- Literature Solubility in H2O @ 25° C. ([5]; Table XV): 0.004 mg/mL
- Literature Solubility in H2O @ 25° C. ([5]; Table XVI): 0.004 mg/mL
- PEG400 Solubility: supersaturation ([6]; PEG400 solution): Not Sup. Sat.
- PS80 Solubility: supersaturation ([6]; PS80 solution): Not Sup. Sat.

- PEG400 Sol. Conc. ([3]; thermal treatment): 80 to 100 mg/mL
- SOLUBLE CONC. RANGE (% wt/wt) [4, 10]: > 8%
- Flavonoid in Solvent - [4]: 127.5 mg/mL
- solubility [4]: > 80 mg/mL
- Jordi PS800 Results ([4]; thermal treatment): 127.5 mg/mL
- PS80 Sol. Conc. - ([4]; thermal treatment): >80 mg/mL
Molecule: Oc1ccc(C=Cc2cc(O)cc(O)c2)cc1 [Resveratrol]
- WATER SOLUBILITY (mg/ml) [5]: *0.1 to 0.3 mg/ml

Molecule: COc1ccc([C@@H]2CC(=O)c3c(O)cc(O[C@@H]4O[C@H](CO[C@@H]5O[C@@H](C)[C@H](O)[C@@H](O)[C@H]5O)[C@@H](O)[C@H](O)[C@H]4O)cc3O2)cc1O [Hesperidin]
- SOLUBLE CONC. RANGE [7]: < 10 mg/mL
- SOLUBLE CONC. RANGE (% wt/wt) [7]: < 1%
- Molar Ratio PEG400/API (mole/mole) [3]: 21.2 mole/mole
- Flavonoid in Solvent - [3]: 81.0 ± 8.0 mg/mL
- Jordi PEG400 Results ([3]; thermal treatment): 81 mg/mL
- SOLUBLE CONC. RANGE [4, 10]: < 20 mg/mL
- Lit. H2O Sol. - [5]: 0.05 to 3 mg/mL
- WATER SOLUBILITY (mg/ml) [5]: from 0.05 to 3 mg/ml

Molecule: O=c1c(O)c(-c2ccc(O)c(O)c2)oc2cc(O)cc(O)c12 [Quercetin]
- SOLUBLE CONC. RANGE (% wt/wt) [7]: <<7%
- Conc. In Ceteareth-20 [8]: ~10 mg/mL
- PEG400 Sol. Conc. ([3]; thermal treatment): 60 to 80 mg/mL
- SOLUBLE CONC. RANGE (% wt/wt) [4, 10]: > 7%
- Flavonoid in Solvent - [4]: 65.0 mg/mL
- solubility [4]: > 70 mg/mL
- Jordi PS800 Results ([4]; thermal treatment): 65 mg/mL
- PS80 Sol. Conc. - ([4]; thermal treatment): >80 mg/mL
- Lit. H2O Sol. - [5]: <1 mg/mL
- WATER SOLUBILITY (mg/ml) [5]: *<1 mg/ml
- supersaturation in Ceteareth-20 ([6]; Room Temp.): solubilization. Not Super Saturated at Room Temp. via

Molecule: Triton X-100
- ET50 (EpiDerm tissue): 5.9 h

Molecule: C[C@@H]1O[C@@H](OC[C@H]2O[C@@H](Oc3c(-c4ccc(O)c(O)c4)oc4cc(O)cc(O)c4c3=O)[C@H](O)[C@@H](O)[C@@H]2O)[C@H](O)[C@H](O)[C@H]1O [Rutin]
- solubility [7]: < 15 mg/mL
- SOLUBLE CONC. RANGE (% wt/wt) [4, 10]: < 1%
- Flavonoid in Solvent - [4]: 14.3 mg/mL
- solubility [4]: < 10 mg/mL

Molecule: O=c1cc(-c2ccc(O)c(O)c2)oc2cc(O)cc(O)c12 [Luteolin, 3′,4′,5,7-tetrahydroxyflavone]
- SOLUBLE CONC. RANGE (% wt/wt) [7]: ≤ 5%
- solubility [7]: ≤ 50 mg/mL
- non-concentrate method: compound, nonoxynol-9 and 17 ml water heated to near boiling, cooled [1]: did precipitate
- Comments when 17 ml of H2O was added to 3 gms of the concentrate ([1]; Nonoxynol-9 concentrate): A clear soln formed.
- non-concentrate method: compound, polysorbate 80 and 17 ml water heated to near boiling, cooled [1]: did precipitate
- Comments when 17 ml of H2O was added to 3 gms of the concentrate ([1]; Polysorbate 80 concentrate): A clear soln formed.
- Conc. In Ceteareth-20 [8]: ~10 mg/mL
- Prepared Thermal Treatment Concentration in Nonoxynol-9 [2]: 50 mg/mL
- Molar Ratio PEG400/API (mole/mole) [3]: 11.1 mole/mole
- Flavonoid in Solvent - [3]: 72.5 mg/mL
- Jordi PEG400 Results ([3]; thermal treatment): 72.5 mg/mL
- PEG400 Sol. Conc. ([3]; thermal treatment): 70 to 90 mg/mL
- SOLUBLE CONC. RANGE (% wt/wt) [4, 10]: > 8%
- Prepared Thermal Treatment Concentration in Polysorbate 80 [4]: 50 mg/mL
- solubility [4]: > 80 mg/mL
- PS80 Sol. Conc. - ([4]; thermal treatment): >80 mg/mL
- solubility in the test oils ([9]; mineral, jojoba, canola, borage oils): insoluble
- concentration of concentrate in polyglyceryl-4 oleate ([9]; room temperature): 10 mg/mL
- Lit. H2O Sol. - [5]: 0.38 mg/mL
- Literature Solubility in H2O @ 25° C. ([5]; Table XV): 0.14 mg/mL
- Literature Solubility in H2O @ 25° C. ([5]; Table XVI): 0.14 mg/mL
